≈ marks a conversion by molar mass, not a printed value.
What was measured:
Clostridium sphenoides = experiment: MIC of baseline clinical isolates (Example 8); type: cell-based; conditions: Clostridium sphenoides baseline isolates (N′ = 1), central laboratory, mITT
Method: (§1) Microbiology was assessed on Day 1 and at the time of any subsequent surgical procedure at the index site. Samples were collected from the infected bone site or involved tissue adjacent to any implant(s), swabs of the deep infection site, and the superficial tissue/wound closure/sinus tract site. […] Parallel sets of samples were analyzed by the local clinical site laboratory to guide patient antibiotic treatment.

Actinomyces turicensis = experiment: MIC of baseline clinical isolates (Example 8); type: cell-based; conditions: Actinomyces turicensis baseline isolates (N′ = 1), central laboratory, mITT
Method: as §1

Peptoniphilus gorbachii = experiment: MIC of baseline clinical isolates (Example 8); type: cell-based; conditions: Peptoniphilus gorbachii baseline isolates (N′ = 1), central laboratory, mITT
Method: as §1

[1] = tested on: non-speciated Anaerococcus; experiment: MIC of baseline clinical isolates (Example 8); type: cell-based; conditions: Anaerococcus non-speciated baseline isolates (N′ = 1), central laboratory, mITT
Method: as §1

Anaerococcus murdochii = experiment: MIC of baseline clinical isolates (Example 8); type: cell-based; conditions: Anaerococcus murdochii baseline isolates (N′ = 1), central laboratory, mITT
Method: as §1

F. magna = experiment: MIC of baseline clinical isolates (Example 8); type: cell-based; conditions: Finegoldia magna baseline isolates (N′ = 4), central laboratory, mITT
Method: as §1

[2] = tested on: Cutibacterium [Propionibacterium] acnes; experiment: MIC of baseline clinical isolates (Example 8); type: cell-based; conditions: Cutibacterium (Proprionibacterium) acnes baseline isolates (N′ = 3), central laboratory, mITT
Method: as §1

[3] = tested on: non-speciated Corynebacterium; experiment: MIC of baseline clinical isolates (Example 8); type: cell-based; conditions: Corynebacterium non-speciated baseline isolates (N′ = 2), central laboratory, mITT
Method: (§2) Microbiology was assessed on Day 1 and at the time of any subsequent surgical procedure at the index site. Samples were collected from the infected bone site or involved tissue adjacent to any implant(s), swabs of the deep infection site, and the superficial tissue/wound closure/sinus tract site. Isolation and identification of aerobic and anerobic bacteria was conducted at a central microbiology laboratory (IHMA, Schaumburg, IL) and susceptibility of the isolates to MBN-101 (BisEDT) and comparator agents was performed per Clinical and Laboratory Standards Institute (CLSI). Parallel sets of samples were analyzed by the local clinical site laboratory to guide patient antibiotic treatment.

[4] = tested on: Corynebacterium resistens; experiment: MIC of baseline clinical isolates (Example 8); type: cell-based; conditions: Corynebacterium resistens baseline isolates (N′ = 1), central laboratory, mITT
Method: as §2

Corynebacterium jeikeium = experiment: MIC of baseline clinical isolates (Example 8); type: cell-based; conditions: Corynebacterium jeikeium baseline isolates (N′ = 2), central laboratory, mITT
Method: as §2

Dermabacter hominis = experiment: MIC of baseline clinical isolates (Example 8); type: cell-based; conditions: Dermabacter hominis baseline isolates (N′ = 1), central laboratory, mITT
Method: as §2

Streptococcus oralis = experiment: MIC of baseline clinical isolates (Example 8); type: cell-based; conditions: Streptococcus oralis baseline isolates (N′ = 1), central laboratory, mITT
Method: as §2

[5] = tested on: Corynebacterium amycolatum; experiment: MIC of baseline clinical isolates (Example 8); type: cell-based; conditions: Corynebacterium amycolatum baseline isolates (N′ = 1), central laboratory, mITT
Method: as §2

S. aureus ATCC 29213 = conditions: per CLSI M100-S24 or provided by Microbion; cited from earlier work
M. abscessus (MABSC) = experiment: MIC against CF isolates (Example 7, Table 18); type: cell-based, Mycobacterium abscessus complex; conditions: Mycobacteroides abscessus
Staphylococcus pasteuri = experiment: MIC of baseline clinical isolates (Example 8); type: cell-based; conditions: Staphylococcus pasteuri baseline isolates (N′ = 1), central laboratory, mITT
Method: as §1

[6] = tested on: Staphylococcus haemolyticus; experiment: MIC of baseline clinical isolates (Example 8); type: cell-based; conditions: Staphylococcus haemolyticus baseline isolates (N′ = 1), central laboratory, mITT
Method: as §1

S. aureus (MRSA, MSSA) = experiment: MIC of baseline clinical isolates (Example 8); type: cell-based; conditions: Staphylococcus aureus, MRSA baseline isolates (N′ = 4), central laboratory, mITT
Method: as §1

S. epidermidis = experiment: MIC of baseline clinical isolates (Example 8); type: cell-based; conditions: Staphylococcus epidermidis baseline isolates (N′ = 5), central laboratory, mITT
Method: as §1

Staphylococcus hominis = experiment: MIC of baseline clinical isolates (Example 8); type: cell-based; conditions: Staphylococcus hominis baseline isolates (N′ = 1), central laboratory, mITT
Method: as §1

[7] = tested on: Staphylococcus lugdunensis; experiment: MIC of baseline clinical isolates (Example 8); type: cell-based; conditions: Staphylococcus lugdunensis baseline isolates (N′ = 3), central laboratory, mITT
Method: as §1

Staphylococcus arlettae = experiment: MIC of baseline clinical isolates (Example 8); type: cell-based; conditions: Staphylococcus arlettae baseline isolates (N′ = 1), central laboratory, mITT
Method: as §1

[8] = tested on: relevant ATCC QC organisms; conditions: S. aureus ATCC 29213; CLSI established QC range; cited from earlier work
[9] = tested on: vancomycin-intermediate Staphylococcus aureus; experiment: Broth microdilution MIC (Example 6); type: cell-based
Procedure, shortened: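 CLSI broth microdilution in cation-adjusted Mueller Hinton broth, test agents 0.06-64 μg/mL from DMSO stocks, inoculum approx. 5×10^5 CFU/mL. Incubation 35° C for 16–20 hr; MIC taken as lowest concentration inhibiting visible growth.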

[10] = tested on: relevant ATCC QC organisms; experiment: Broth microdilution MIC, QC (Example 6); type: cell-based; conditions: S. aureus ATCC 29213
Procedure, shortened: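 QC strains were tested per CLSI broth microdilution in cation-adjusted Mueller Hinton broth, with Ca2+ supplemented for daptomycin, at about 5×10^5 CFU/mL. Incubation was at 35° C for 16–20 hr, or 24 hr for vancomycin against S. aureus. The MIC was the lowest concentration inhibiting visible growth.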

SMILES: CCN1CCN(C(=O)N[C@@H](C(=O)N[C@@H]2C(=O)N3[C@@H]2SC(C)(C)[C@@H]3C(=O)O)c2ccccc2)C(=O)C1=O.C[C@]1(Cn2ccnn2)[C@H](C(=O)O)N2C(=O)C[C@H]2S1(=O)=O [TZP]
- Mean MIC (Clostridium sphenoides): 16.00 mg/L
- n (% resistant) (Clostridium sphenoides): 0 (0.0) n (%)
- Mean MIC (Actinomyces turicensis): 1.00 mg/L
- n (% resistant) (Actinomyces turicensis): 0 (0.0) n (%)
- Mean MIC (Peptoniphilus gorbachii): 0.03 mg/L
- n (% resistant) (Peptoniphilus gorbachii): 0 (0.0) n (%)
- n (% resistant) [1]: 0 (0.0) n (%)
- Mean MIC (Anaerococcus murdochii): 0.50 mg/L
- n (% resistant) (Anaerococcus murdochii): 0 (0.0) n (%)
- Mean MIC (F. magna): 0.34 mg/L
- n (% resistant) (F. magna): 0 (0.0) n (%)
- Mean MIC [2]: 0.29 mg/L
- n (% resistant) [2]: 0 (0.0) n (%)
- Mean MIC [3]: 1.00 mg/L
- n (% resistant) [3]: 0 (0.0) n (%)
- Mean MIC [4]: 1.00 mg/L
- n (% resistant) [4]: 0 (0.0) n (%)
- Mean MIC (Corynebacterium jeikeium): 1.00 mg/L
- n (% resistant) (Corynebacterium jeikeium): 0 (0.0) n (%)
- Mean MIC (Dermabacter hominis): 0.50 mg/L
- n (% resistant) (Dermabacter hominis): 0 (0.0) n (%)
- Mean MIC (Streptococcus oralis): 0.06 mg/L
- n (% resistant) (Streptococcus oralis): 0 (0.0) n (%)
- Mean MIC [5]: 1.00 mg/L
- n (% resistant) [5]: 0 (0.0) n (%)

SMILES: CC[C@H]1OC(=O)[C@H](C)[C@@H](O[C@H]2C[C@@](C)(OC)[C@@H](O)[C@H](C)O2)[C@H](C)[C@@H](O[C@@H]2O[C@H](C)C[C@H](N(C)C)[C@H]2O)[C@](C)(OC)C[C@@H](C)C(=O)[C@H](C)[C@@H](O)[C@]1(C)O [Clarithromycin, reference compound]
- MIC, acceptable range (S. aureus ATCC 29213): 0.12 to 0.5 µg/mL
- MIC, expected results (S. aureus ATCC 29213): 0.25 µg/mL (≈ 0.334 µM)
- MIC (M. abscessus (MABSC); strain AMT0068-40, M abscessus/massiliense complex): 1 µg/mL (≈ 1.34 µM)
- MIC (M. abscessus (MABSC); strain AMT0119-7, M abscessus/massiliense complex): 1 µg/mL (≈ 1.34 µM)

SMILES: CC(=O)NC[C@H]1CN(c2ccc(N3CCOCC3)c(F)c2)C(=O)O1 [LZD]
- Mean MIC (Staphylococcus pasteuri): 1.00 mg/L
- n (% resistant) (Staphylococcus pasteuri): 0 (0.0) n (%)
- Mean MIC [6]: 1.00 mg/L
- n (% resistant) [6]: 0 (0.0) n (%)
- Mean MIC (S. aureus (MRSA, MSSA)): 1.25 mg/L
- n (% resistant) (S. aureus (MRSA, MSSA)): 0 (0.0) n (%)
- Mean MIC (S. epidermidis): 0.80 mg/L
- n (% resistant) (S. epidermidis): 0 (0.0) n (%)
- Mean MIC (Staphylococcus hominis): 0.50 mg/L
- n (% resistant) (Staphylococcus hominis): 0 (0.0) n (%)
- Mean MIC [7]: 0.83 mg/L
- n (% resistant) [7]: 0 (0.0) n (%)
- Mean MIC (Staphylococcus arlettae): 2.00 mg/L
- n (% resistant) (Staphylococcus arlettae): 0 (0.0) n (%)
- Mean MIC [3]: 0.18 mg/L
- n (% resistant) [3]: 0 (0.0) n (%)
- Mean MIC [4]: 0.25 mg/L
- n (% resistant) [4]: 0 (0.0) n (%)
- Mean MIC (Corynebacterium jeikeium): 0.38 mg/L
- n (% resistant) (Corynebacterium jeikeium): 0 (0.0) n (%)
- Mean MIC (Dermabacter hominis): 0.50 mg/L
- n (% resistant) (Dermabacter hominis): 0 (0.0) n (%)
- Mean MIC (Streptococcus oralis): 1.00 mg/L
- n (% resistant) (Streptococcus oralis): 0 (0.0) n (%)
- Mean MIC [5]: 0.12 mg/L
- n (% resistant) [5]: 0 (0.0) n (%)
- MIC QC range (in parentheses) [8]: (1-4) μg/mL
- MIC ([9]; S. aureus isolate NRS 1 (hVISA)): 1 µg/mL
- MIC ([9]; S. aureus isolate NRS 2): 4 µg/mL
- MIC ([9]; S. aureus isolate NRS 3): 1 µg/mL
- MIC ([9]; S. aureus isolate NRS 4): 1 µg/mL
- MIC ([9]; S. aureus isolate NRS 13): 2 µg/mL
- MIC ([9]; S. aureus isolate NRS 18): 1 µg/mL
- MIC ([9]; S. aureus isolate NRS 22): 1 µg/mL
- MIC ([9]; S. aureus isolate NRS 24 (hVISA)): 2 µg/mL
- MIC ([9]; S. aureus isolate NRS 27): 2 µg/mL
- MIC [10]: 4 µg/mL

SMILES: Cc1ncc([N+](=O)[O-])n1CCO [MTZ]
- Mean MIC (Clostridium sphenoides): 0.32 mg/L
- n (% resistant) (Clostridium sphenoides): 0 (0.0) n (%)
- Mean MIC (Actinomyces turicensis): 16.00 mg/L
- n (% resistant) (Actinomyces turicensis): 1 (100.0) n (%)
- Mean MIC (Peptoniphilus gorbachii): 0.50 mg/L
- n (% resistant) (Peptoniphilus gorbachii): 0 (0.0) n (%)
- Mean MIC [1]: 16.00 mg/L
- n (% resistant) [1]: 1 (100.0) n (%)
- Mean MIC (Anaerococcus murdochii): 1.00 mg/L
- n (% resistant) (Anaerococcus murdochii): 0 (0.0) n (%)
- Mean MIC (F. magna): 0.56 mg/L
- n (% resistant) (F. magna): 0 (0.0) n (%)
- Mean MIC [2]: 16.00 mg/L
- n (% resistant) [2]: 3 (100.0) n (%)
